Measurements published in patent US20120270744A1, “METHODS TO DETERMINE IF A SUBJECT WILL RESPOND TO A BCR-ABL INHIBITOR” (Oregon Health & Science University, priority 2007, published 2012).
Read-outs that look alike come from different tables or passages of the source.

Legend:
[1] = tested on: Lin−/CD34+/CD38+ and Lin−/CD34+/CD38− CML cells; assay: Culture of sorted primitive CML cells with imatinib: growth and viability; type: cell-based, human; conditions: 5 μM imatinib, physiological concentrations of cytokines
Method: FIGS. 9A-9C are a set of graphs dot plots and digital images of Western blots showing viable cells and phosphotyrosine content following treatment with a BCR-ABL inhibitor. […] (FIG. 9B) After 2 hours, immunoblot analysis of cellular extracts for Crkl phosphorylation was preformed. (FIG. 9C) Aliquots from the same cultures were analyzed by FACS analysis for total cellular phosphotyrosine content. Results were identical after 96 hours of culture.
A combination of lineage-depletion columns and high speed sorting was used to select highly pure populations of Lin−/CD34+/CD38+(enriched for progenitor cells) and Lin−/CD34+/[…] (enriched for stem cells). […] It was concludes that survival of primitive CML cells may not require BCR-ABL kinase activity, implicating BCR-ABL-independent extrinsic or intrinsic mechanisms in the maintenance of viability.

[2] = tested on: newly diagnosed chronic phase CML patients; assay: Cytogenetic response of validation set patients treated with imatinib; type: in vivo, human; conditions: within 12 months, 23 newly diagnosed chronic phase patients
[3] = tested on: patients with CML in chronic phase; conditions: cited from earlier work; for risk of progression to accelerated phase or blast crisis: at 5 years
CML CD34+ cells = assay: Centrifugal adhesion assay to fibronectin with fluorescently labeled cells; type: cell-based, human
From the text: (FIG. 10A) Adhesion under the carious conditions. (FIG. 10B) Fold expansion of viable cells. (FIG. 10C) Recovery of CFU-GM.
To reliably quantify adherence we modified the McClay (1981 PNAS 78:4975-9) centrifugal adhesion assay, using fluorescently labeled cells.

**Q.** For Cc1ccc(NC(=O)c2ccc(CN3CCN(C)CC3)cc2)cc1Nc1nccc(-c2cccnc2)n1 [imatinib], which viability [1] is on record?
**A.** The viability was “viability was maintained”.

**Q.** And the “growth (total number of viable cells over time)” value ([1]; preliminary experiments N=4)?
**A.** Its value is “reduced to approximately the level of normal cells”.

**Q.** What about the “patients who achieved CCyR” value [2] of the same molecule?
**A.** The value was 74%.

**Q.** And the projected overall survival ([3]; 60 months of follow-up)?
**A.** Its projected overall survival is 89%.

**Q.** What about the “patients who progressed to accelerated phase or blast crisis” value ([3]; among those who lost response) of the same molecule?
**A.** Its value is 7%.

**Q.** What about the “risk of progression to accelerated phase or blast crisis” value ([3]; patients in complete cytogenetic response after 12 months of therapy) of the same molecule?
**A.** Its value is 3%.

**Q.** What about the “risk of progression to accelerated phase or blast crisis” value ([3]; patients with primary cytogenetic resistance) of the same molecule?
**A.** The value was 19%.

**Q.** What about the “patients with primary cytogenetic resistance (failed to attain a major cytogenetic response)” value ([3]; at 12 months) of the same molecule?
**A.** Its value is “approximately 14%”.

**Q.** What about the “patients who lost their response” value ([3]; human, in vivo) of the same molecule?
**A.** The value was “approximately 16%”.

**Q.** What about the “cumulative rate of complete cytogenetic response (CCyR, 0% Ph+ metaphases)” value ([3]; newly diagnosed CML in chronic phase, imatinib as initial therapy, 60 months of follow-up) of the same molecule?
**A.** Its value is 87%.

**Q.** What about the “spontaneous adhesion to fibronectin” value (CML CD34+ cells; imatinib 5 micoM, 96 hours culture) of the same molecule?
**A.** The value was “further reduced”.

**Q.** And the adhesion to fibronectin (CML CD34+ cells; imatinib in presence of beta1 integrin activating antibody B44)?
**A.** The adhesion to fibronectin was “again reduced”.
